Earlier results in US8960128B2, “Topical anesthetic composition” (Animal Ethics Pty Ltd, priority 2005, dated 2015).

Key:
[1] = typically up to about; depending on the method of administration
[2] = sheep, topically applied

Compound	duration of anesthesia [1]	total dose that should not be exceeded [2]
CCCCN1CCCCC1C(=O)Nc1c(C)cccc1C (centres unmarked) [bupivacaine]	6 to 12 h	
CCN(CC)CC(=O)Nc1c(C)cccc1C [lignocaine]		≤ 50 mg/kg
